system: Human tumor cells; experiment: Soft Agar Assay (anchorage-independent growth); format: cell-based; conditions: colony outgrowth in soft agar, stated as a range for the group
Experimental: Anchorage-independent growth is a characteristic of tumorigenic cell lines. Human tumor cells can be suspended in growth medium containing 0.3% agarose and an indicated concentration of a farnesyl transferase inhibitor. The solution can be overlayed onto growth medium solidified with 0.6% agarose containing the same concentration of farnesyl transferase inhibitor as the top layer. After the top layer is solidified, plates can be incubated for 10-16 days at 37° C. under 5% CO2 to allow colony outgrowth. After incubation, the colonies can be stained by overlaying the agar with a solution of MTT (3-[4,5-dimethyl-thiazol-2-yl]-2,5-diphenyltetrazolium bromide, Thiazolyl blue) (1 mg/mL in PBS). Colonies can be counted and the IC50's can be determined.

| SMILES | IC50 [nM] |
| --- | --- |
| Cc1cn(CC2CN(C(=O)C3CN(C4c5ccc(Cl)cc5CCc5cccnc54)CCN3C(=O)OC3CCCCC3)CCS2(=O)=O)cn1 (single isomer, unassigned) [47(L)] | 0.05 to 30 |
| Cc1nc(C)n(CC2CCCN(C(=O)C3CN(C4c5ccc(Cl)cc5CCc5cccnc54)CCN3C(=O)OC3CCCCC3)C2)c1C (single isomer, unassigned) [47(P)] | 0.05 to 30 |
| Cc1cn(CCC2CCCN2C(=O)C2CN(C3c4ccc(Cl)cc4CCc4cccnc43)CCN2C(=O)OC2CCCCC2)cn1 (single isomer, unassigned) [47(S)] | 0.05 to 30 |
| CC(C)(C)OC(=O)N1CCN(C2c3ccc(Cl)cc3CCc3cc(Br)cnc32)CC1C(=O)N1CCCCC1CCCn1ccnc1 (single isomer, unassigned) [Example 145] | 0.5 to 30 |
| Cc1[nH]cnc1CC1CN(C(=O)C2CN(C3c4ccc(Cl)cc4CCc4cc(Br)cnc43)CCN2C(=O)OC(C)(C)C)CCS1(=O)=O (single isomer, unassigned) [Example 156] | 0.05 to 30 |
| Cc1[nH]cnc1CC1CN(C(=O)C2CN(C3c4ccc(Cl)cc4CCc4cc(Br)cnc43)CCN2C(=O)OC2CCCCC2)CCS1(=O)=O (single isomer, unassigned) [Example 212] | 0.05 to 30 |
| Cc1cn(CC2CCCN(C(=O)C3CN(C4c5ncccc5CCc5cccc(Cl)c54)CCN3C(=O)OC3CCCCC3)C2)cn1 (single isomer, unassigned) [Example 391] | 0.05 to 30 |
| Cc1nccn1CC1CCCN(C(=O)C2CN(C3c4ncccc4CCc4cccc(Cl)c43)CCN2C(=O)OC(C)(C)C)C1 (single isomer, unassigned) [Example 396] | 0.05 to 30 |
| Cc1cn(CC2CCCN(C(=O)C3CN(C4c5ncccc5CCc5cc(Cl)cc(Br)c54)CCN3C(=O)OC(C)(C)C)C2)cn1 (single isomer, unassigned) [Example 407] | 0.05 to 30 |
| Cc1cn(CC2CCCCN(C(=O)C3CN(C4c5ccc(Cl)cc5CCc5cccnc54)CCN3C(=O)OC3CCCCC3)C2)cn1 (single isomer, unassigned) [Example 409] | 0.05 to 30 |
| Cc1cn(CC2(O)CCCN(C(=O)[C@H]3CN([C@H]4c5ccc(Cl)cc5CCc5cccnc54)CCN3C(=O)OCc3ccccc3)C2)cn1 (single isomer, unassigned) [Example 422] | 0.05 to 30 |
| Cc1cn(C[C@]2(O)CCCN(C(=O)[C@H]3CN([C@H]4c5ccc(Cl)cc5CCc5cccnc54)CCN3C(=O)OC3CCCCC3)C2)cn1 (stereo in doubt) [Example 419] | 0.05 to 30 |
| Cc1nccn1CC1CN(C(=O)C2CN(C3c4ccc(Cl)cc4CCc4cccnc43)CCN2C(=O)OC(C)(C)C)CCS1(=O)=O (centres unmarked) [35(E)] | 0.05 to 30 |
| CC(C)(C)OC(=O)N1CCN(C2c3ccc(Cl)cc3CCc3cc(Br)cnc32)C[C@@H]1C(=O)N1CCC[C@H](Cn2ccnc2)C1 (some centres unmarked) [Example 1] | 0.5 to 30 |
| CC(C)(C)OC(=O)N1CCN(C2c3ccc(Cl)cc3CCc3cc(Br)cnc32)CC1C(=O)N1CC[S+]([O-])C(Cn2ccnc2)C1 (centres unmarked) [Example 7] | 0.5 to 30 |
| Cc1nccn1C[C@@H]1CCCN(C(=O)[C@H]2CN([C@H]3c4ccc(Cl)cc4CCc4cccnc43)CCN2C(=O)OC(C)(C)C)C1 [Example 30] | 0.5 to 30 |
| Cc1cn(C[C@@H]2CCCN(C(=O)[C@H]3CN([C@H]4c5ccc(Cl)cc5CCc5cccnc54)CCN3C(=O)OC(C)(C)C)C2)cn1 [Example 32] | 0.5 to 30 |
| CCc1nccn1CC1CCCN(C(=O)C2CN(C3c4ccc(Cl)cc4CCc4cccnc43)CCN2C(=O)OC(C)(C)C)C1 (centres unmarked) [Example 34] | 0.5 to 30 |
| Cc1nccn1CC1CCCN(C(=O)C2CN(C3c4ccc(Cl)cc4CCc4cccnc43)CCN2C(=O)NC(C)(C)C)C1 (centres unmarked) [Example 49] | 0.5 to 30 |
| Cc1cn(CC2CCCN(C(=O)C3CN(C4c5ccc(Cl)cc5CCc5cccnc54)CCN3C(=O)NC(C)(C)C)C2)cn1 (centres unmarked) [Example 50] | 0.5 to 30 |
| CC(C)(C)OC(=O)N1CCN(C2c3ccc(Cl)cc3CCc3cc(Br)cnc32)C[C@@H]1C(=O)N1CCCCC1CCn1ccnc1 (stereo partly drawn) [Example 74, 1,1-dimethylethyl-4-(3-bromo-8-chloro-6,11-dihydro-5H-benzo[5,6]cyclohepta[1,2-b]pyridin-11-yl)-2(R)-[[2-[2-(1H-imidazol-1-yl)ethyl]-1-piperidinyl]carbonyl]-1-piperazinecarboxylate] | 0.5 to 30 |
| CC(C)(C)OC(=O)N1CCN([C@H]2c3ccc(Cl)cc3CCc3cc(Br)cnc32)C[C@@H]1C(=O)N1CCCCC1CCn1ccnc1 (stereo partly drawn) [Example 138, 1,1-dimethylethyl 4-(3-bromo-8-chloro-6,11-dihydro-5H-benzo[5,6]cyclohepta[1,2-b]pyridin-11(S)-yl)-2(R)-[[2-[2-(1H-imidazol-1-yl)ethyl]-1-piperidinyl]carbonyl]-1-piperazinecarboxylate] | 0.5 to 30 |
| Cc1cn(CC2CN(C(=O)C3CN(C4c5ccc(Cl)cc5CCc5cc(Br)cnc54)CCN3C(=O)OC(C)(C)C)CCS2(=O)=O)cn1 (centres unmarked) [Example 150] | 0.05 to 30 |
| Cc1nccn1CC1CN(C(=O)C2CN(C3c4ccc(Cl)cc4CCc4cc(Br)cnc43)CCN2C(=O)OC(C)(C)C)CCS1(=O)=O (centres unmarked) [Example 151] | 0.05 to 30 |
| Cc1cncn1CC1CN(C(=O)C2CN(C3c4ccc(Cl)cc4CCc4cc(Br)cnc43)CCN2C(=O)OC(C)(C)C)CCS1(=O)=O (centres unmarked) [Example 152] | 0.05 to 30 |

| SMILES | IC50 [nM] |
| --- | --- |
| Cc1cncn1C[C@H]1CN(C(=O)[C@H]2CN([C@H]3c4ccc(Cl)cc4CCc4cc(Br)cnc43)CCN2C(=O)OC(C)(C)C)CCS1(=O)=O [Example 154] | 0.05 to 30 |
| CC(C)(C)OC(=O)N1CCN(C2c3ccc(Cl)cc3CCc3cc(Br)cnc32)CC1C(=O)N1CCS(=O)(=O)C(Cc2c[nH]cn2)C1 (centres unmarked) [Example 155] | 0.05 to 30 |
| Cc1nc(C)n(CC2CCCN(C(=O)C3CN(C4c5ccc(Cl)cc5CCc5cc(Br)cnc54)CCN3C(=O)OC(C)(C)C)C2)c1C (centres unmarked) [Example 158] | 0.05 to 30 |
| Cc1c(CO)ncn1CC1CCCN(C(=O)C2CN(C3c4ccc(Cl)cc4CCc4cc(Br)cnc43)CCN2C(=O)OC(C)(C)C)C1 (centres unmarked) [Example 160] | 0.05 to 30 |
| Cc1cn(C[C@@H]2CCCN(C(=O)[C@H]3CN([C@@H]4c5ccc(Cl)cc5CCc5cc(Br)cnc54)CCN3C(=O)OC(C)C)C2)cn1 [Example 169] | 0.05 to 30 |
| Cc1cn(C[C@@H]2CCCN(C(=O)[C@H]3CN([C@H]4c5ccc(Cl)cc5CCc5cc(Br)cnc54)CCN3C(=O)OC(C)C)C2)cn1 [Example 170] | 0.05 to 30 |
| Cc1cn(C[C@@H]2CCCN(C(=O)[C@H]3CN([C@@H]4c5ccc(Cl)cc5CCc5cc(Br)cnc54)CCN3C(=O)OC3CCCCC3)C2)cn1 [Example 171] | 0.05 to 30 |
| Cc1cn(C[C@@H]2CCCN(C(=O)[C@H]3CN([C@H]4c5ccc(Cl)cc5CCc5cc(Br)cnc54)CCN3C(=O)OC3CCCCC3)C2)cn1 [Example 172] | 0.05 to 30 |
| Cc1cn(C[C@@H]2CCCN(C(=O)[C@H]3CN([C@@H]4c5ccc(Cl)cc5CCc5cc(Br)cnc54)CCN3C(=O)OCC(C)(C)C)C2)cn1 [Example 173] | 0.05 to 30 |
| Cc1cn(C[C@@H]2CCCN(C(=O)[C@H]3CN([C@H]4c5ccc(Cl)cc5CCc5cc(Br)cnc54)CCN3C(=O)OCC(C)(C)C)C2)cn1 [Example 174] | 0.05 to 30 |
| Cc1cn(CC2CCCN(C(=O)C3CN(C4c5ccc(Cl)cc5CCc5cc(Br)cnc54)CCN3C(=O)NC(C)(C)C)C2)cn1 (centres unmarked) [Example 177] | 0.05 to 30 |
| Cc1cn(C[C@@H]2CCCN(C(=O)[C@H]3CN([C@@H]4c5ccc(Cl)cc5CCc5cc(Br)cnc54)CCN3C(=O)C(C)(C)C)C2)cn1 [Example 179] | 0.05 to 30 |
| Cc1cn(CC2CCCN(C(=O)C3CN(C4c5ccc(Cl)cc5CCc5cc(Br)cnc54)CCN3C(=O)C(C)(C)C)C2)cn1 (centres unmarked) [Example 180] | 0.05 to 30 |
| Cc1cn(C[C@H]2CCCN(C(=O)[C@H]3CN([C@@H]4c5ccc(Cl)cc5CCc5cc(Br)cnc54)CCN3C(=O)OC(C)C)C2)cn1 [Example 183] | 0.05 to 30 |
| Cc1cn(C[C@H]2CCCN(C(=O)[C@H]3CN([C@H]4c5ccc(Cl)cc5CCc5cc(Br)cnc54)CCN3C(=O)OC(C)C)C2)cn1 [Example 184] | 0.05 to 30 |
| Cc1cn(C[C@H]2CCCN(C(=O)[C@H]3CN([C@@H]4c5ccc(Cl)cc5CCc5cc(Br)cnc54)CCN3C(=O)OC3CCCCC3)C2)cn1 [Example 185] | 0.05 to 30 |
| Cc1cn(C[C@H]2CCCN(C(=O)[C@H]3CN([C@H]4c5ccc(Cl)cc5CCc5cc(Br)cnc54)CCN3C(=O)OC3CCCCC3)C2)cn1 [Example 186] | 0.05 to 30 |
| Cc1cn(C[C@H]2CCCN(C(=O)[C@H]3CN([C@@H]4c5ccc(Cl)cc5CCc5cc(Br)cnc54)CCN3C(=O)OCC(C)(C)C)C2)cn1 [Example 187] | 0.05 to 30 |
| Cc1cn(CC2CCCN(C(=O)C3CN(C4c5ccc(Cl)cc5CCc5cc(Br)cnc54)CCN3C(=O)OCC(C)(C)C)C2)cn1 (centres unmarked) [Example 188] | 0.05 to 30 |
| Cc1cn(C[C@H]2CCCN(C(=O)[C@H]3CN([C@@H]4c5ccc(Cl)cc5CCc5cc(Br)cnc54)CCN3C(=O)NC(C)(C)C)C2)cn1 [Example 191] | 0.05 to 30 |
| Cc1cn(C[C@H]2CCCN(C(=O)[C@H]3CN([C@H]4c5ccc(Cl)cc5CCc5cc(Br)cnc54)CCN3C(=O)NC(C)(C)C)C2)cn1 [Example 192] | 0.05 to 30 |
| Cc1cn(C[C@@H]2CCCN(C(=O)[C@H]3CN([C@H]4c5ccc(Cl)cc5CCc5cc(Br)cnc54)CCN3C(=O)C3(C)CC3)C2)cn1 [Example 201] | 0.05 to 30 |
| Cc1cn(C[C@@H]2CN(C(=O)[C@H]3CN([C@@H]4c5ccc(Cl)cc5CCc5cc(Br)cnc54)CCN3C(=O)OC3CCCCC3)CCS2(=O)=O)cn1 [Example 209] | 0.05 to 30 |
| Cc1cn(C[C@@H]2CN(C(=O)[C@H]3CN([C@H]4c5ccc(Cl)cc5CCc5cc(Br)cnc54)CCN3C(=O)OC3CCCCC3)CCS2(=O)=O)cn1 [Example 210] | 0.05 to 30 |
| Cc1cn(C[C@H]2CN(C(=O)[C@H]3CN([C@H]4c5ccc(Cl)cc5CCc5cc(Br)cnc54)CCN3C(=O)OC3CCCCC3)CCS2(=O)=O)cn1 [Example 211] | 0.05 to 30 |

Reference: patent US6362188B1, “Farnesyl protein transferase inhibitors” (Schering Corporation, priority 1998, dated 2002)
